{
  "source": "paper PMC12845078",
  "about": "(Pharmaceuticals, 2025)",
  "key": {"[1]": {"experiment": "Plasma protein binding (rapid equilibrium dialysis), dog", "conditions": "beagle", "protocol": "(§3) After incubation for 20 min, a portion of the whole blood was centrifuged at 2500× g for 10 min at 4 °C to separate plasma; another portion of the whole blood was subjected to three cycles of freeze–thawing and ultrasonicated for 10 min to disrupt cells. Equal volumes of plasma and whole blood samples were added to the whole blood and plasma specimens, respectively, followed by protein precipitation with acetonitrile containing an internal standard (IS). […] The RED inserts were placed in the matching incubation plate: 200 µL of drug-containing matrix were added to the sample chamber, and 400 µL of PBS buffer (pH: 7.4) were added to the buffer chamber. After incubation in a constant-temperature shaking incubator for 6 h (37 °C), samples from the sample chamber and buffer chamber were diluted 1:1 with PBS or matrix, respectively, and proteins were precipitated with acetonitrile containing IS."}, "[2]": {"experiment": "Plasma protein binding (rapid equilibrium dialysis), rat", "type": "in vitro ADME", "protocol": "as §3"}, "[3]": {"experiment": "Plasma protein binding (rapid equilibrium dialysis), mouse", "type": "in vitro ADME", "conditions": "pH 7.4", "protocol": "as §3"}, "[4]": {"experiment": "Liver microsome protein binding, rat", "type": "in vitro ADME", "conditions": "liver microsomes, pH 7.4"}, "[5]": {"experiment": "Liver microsome protein binding, dog", "type": "in vitro ADME", "conditions": "beagle, liver microsomes, pH 7.4", "protocol": "as §3"}, "[6]": {"experiment": "Liver microsome protein binding, human", "type": "in vitro ADME", "conditions": "liver microsomes, pH 7.4", "protocol": "as §3"}, "[7]": {"experiment": "Pharmacokinetics of MT, 6-HMT and CBD in beagles after oral administration", "conditions": "beagle", "description": "Twelve male healthy adult beagles (weighing 10 ± 2 kg) were randomly divided into two groups. […] The drugs were dissolved in a physiological saline solution containing 5% castor oil, with an administration volume of 2 mL/kg. Blood samples were collected at the time points of pre-administration and 0.083, 0.25, 0.5, 0.75, 1, 1.5, 2, 4, 6, 8, and 12 h post-administration.\n(§1) The column temperature was set at 40 °C."}, "[8]": {"test_system": "CYP1A2-mediated metabolism of MT", "experiment": "Static DDI model prediction of CBD's impact on MT exposure, rat", "conditions": "CBD dose 5 mg", "source_text": "(§2) (AUC when co-administered with the inhibitor) to AUC[contr] (AUC without the inhibitor)."}, "[9]": {"experiment": "Pharmacokinetics of MT, 6-HMT and CBD in SD rats (i.v. and oral)", "conditions": "rat; for half-life / AUC(0-t) / AUC(0-inf) / Cmax / MRT last / Tmax: Sprague-Dawley; for half-life: in vivo, t1/2, rats; for AUC(0-t) / AUC(0-inf) / Cmax / MRT last / Tmax: plasma; for MRT last: MRT(0–t)", "description": "The drugs were dissolved in the same manner as described previously, with an administration volume of 5 mL/kg for all groups. Blood samples were collected at the time points of pre-administration and 0.033 (only for the intravenous administration group), 0.083, 0.25, 0.5, 0.75, 1, 1.5, 2, 4, 6, 8, and 12 h post-administration.\nas §1"}, "[10]": {"experiment": "Pharmacokinetics of MT and CBD in rats after pre-administration of ABT", "conditions": "p.o. MT + CBD (5 + 20) mg/kg", "protocol": "Twelve SD rats were randomly divided into two groups. Both groups were first given an intragastric administration of 1-aminobenzotriazole (ABT) at a dose of 200 mg/kg. […] The administration volume for all groups was 5 mL/kg. […] Approximately 50 μL of venous blood were collected into heparin sodium anticoagulant tubes and placed on ice. The sample processing and storage methods were the same as described previously.\nSubsequently, the resultant mixture was vortexed for 1 minute and centrifuged at 4 °C for 10 min at 18,800× g. […] The lowest limit of quantification (LLOQ) was established at 2 ng/mL.\nKromasil 100-5-C8 (2.1 × 50 mm) was selected for the separation of samples. The mobile phase consisted of solvent A (water with 0.1% formic acid and 5 mM ammonium acetate) and solvent B (methanol with 0.1% formic acid). […] The column temperature was set at 40 °C. The two eluents were 0.1% formic acid and 5 mM ammonium acetate in water (A) and 0.1% formic acid in methanol (B). […] The main mass spectrometry detection parameters were: dry gas 10 L/min, heated gas 10 L/min, collision gas 270 kPa, ion source temperature 300 °C, desolvation temperature 250 °C, and heating module temperature 400 °C.\nPharmacokinetic parameters: GraphPad Prism 10.1 software was utilized to draw the curves. Noncompartmental analysis was selected to calculate the major PK parameters, including clearance (CL), volume (V), half-life (t1/2), peak concentration (Cmax), and area under the curve (AUC), using WinNonlin 8.1."}, "PEPT1": {"target": "T1, PEPT1 (Homo sapiens, UniProt P46059)", "T1 construct": "host or cells: MDCK", "T1 sequence (P46059 1-708)": "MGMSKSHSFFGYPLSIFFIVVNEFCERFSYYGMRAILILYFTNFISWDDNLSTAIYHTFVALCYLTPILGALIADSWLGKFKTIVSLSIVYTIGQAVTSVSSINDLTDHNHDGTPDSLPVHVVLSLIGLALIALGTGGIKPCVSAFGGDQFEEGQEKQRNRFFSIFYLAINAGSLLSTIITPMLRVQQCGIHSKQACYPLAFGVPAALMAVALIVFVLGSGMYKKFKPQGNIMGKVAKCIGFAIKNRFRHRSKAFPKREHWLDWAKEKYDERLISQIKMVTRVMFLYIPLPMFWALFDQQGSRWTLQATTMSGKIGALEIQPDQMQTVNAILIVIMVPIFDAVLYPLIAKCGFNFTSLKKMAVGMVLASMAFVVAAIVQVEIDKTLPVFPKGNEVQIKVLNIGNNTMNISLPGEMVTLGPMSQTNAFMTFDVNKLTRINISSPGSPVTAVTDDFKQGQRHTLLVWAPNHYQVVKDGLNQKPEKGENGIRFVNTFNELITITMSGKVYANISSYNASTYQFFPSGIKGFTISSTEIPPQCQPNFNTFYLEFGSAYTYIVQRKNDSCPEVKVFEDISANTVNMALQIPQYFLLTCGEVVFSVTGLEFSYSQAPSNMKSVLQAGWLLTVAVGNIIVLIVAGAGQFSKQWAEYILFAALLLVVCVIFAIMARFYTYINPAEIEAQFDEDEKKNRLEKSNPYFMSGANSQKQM", "experiment": "Uptake and uptake inhibition in MDCK/hPEPT1 cell model", "type": "cell-based", "conditions": "MDCK", "description": "MDCK-PEPT1 cells were seeded into 24-well plates at a density of approximately 5 × 10^5 cells per well. When the cell confluency reached 60–70%, the culture medium was aspirated, and the cells were rinsed twice with HBSS pre-warmed to 37 °C. […] After incubation at 37 °C for 10 min, the buffer was aspirated, and ice-cold HBSS was immediately added to terminate the reaction, followed by rinsing three times. After drying the residual liquid, 200 μL of pure water were added to each well, and the cells were lysed by repeated freezing–thawing in liquid nitrogen three times. The cell lysates were collected, and the protein content was determined by the BCA method.\nCell uptake assessment: The concentration of the analyte in cells was corrected using the protein concentration of the cell lysate in each well.(4) Conclysate=Concdrug/ConcProtein\nThe uptake rate (U, pmol/mg/min) of the compound was calculated following Formula (5).(5) U=Clysate/P×t where Clysate is the amount of drug in the cell lysate (ng); P is cellular protein content (mg); t is incubation time (min).\nThe uptake ratio of the compound was calculated following Formula (6)(6) UR=U/ UMOCK where UMOCK is the uptake rate in MOCK-MDCK cells (pmol/mg/min).\nThe inhibition ratio was calculated following Formula (7)(7) IR=(1−Uwith inhibitor−Umock with inhibitor/Uwithout inhibitor−Umock without inhibitor)×100%"}, "[11]": {"experiment": "Brain tissue protein binding, rat", "type": "in vitro ADME", "conditions": "pH 7.4", "protocol": "as §3"}, "[12]": {"experiment": "Plasma protein binding (rapid equilibrium dialysis), human", "type": "in vitro ADME", "conditions": "pH 7.4, human", "protocol": "as §3"}, "[13]": {"test_system": "CYP1A2-mediated metabolism of MT", "experiment": "Static DDI model prediction of CBD's impact on MT exposure, beagle", "design": "species or system beagle dog", "conditions": "CBD dose 30 mg", "source_text": "as §2"}, "[14]": {"conditions": "po, 20 mg/kg, rats, p.o., MT + CBD (20 + 20) mg/kg"}, "[15]": {"conditions": "po, 20 mg/kg, rats, p.o., Vehicle + CBD 20 mg/kg"}, "[16]": {"conditions": "male, po, 20 mg/kg, rats, p.o., MT + CBD (5 + 20) mg/kg"}},
  "note": "Where two headings read alike, the source gives them in different places.",
  "data": [
    {"smiles": "C=C(C)[C@@H]1CCC(C)=C[C@H]1c1c(O)cc(CCCCC)cc1O", "note": "[CBD, Cannabidiol]", "values": [
      {"measurement": "fu, p (free fraction in plasma)", "setting": "[1]", "value": 0.33, "unit": "%"},
      {"measurement": "fraction unbound at 6 h", "setting": "[1]; dog, plasma, pH 7.4", "value": 0.0033},
      {"measurement": "fu, p (free fraction in plasma)", "setting": "[2]", "value": 0.25, "unit": "%"},
      {"measurement": "fraction unbound at 6 h", "setting": "[2]; plasma, pH 7.4", "value": 0.0025},
      {"measurement": "fraction unbound at 6 h", "setting": "[3]", "value": 0.0029},
      {"measurement": "fraction unbound at 6 h", "setting": "[4]", "value": 0.0055},
      {"measurement": "fraction unbound at 6 h", "setting": "[5]", "value": 0.0018},
      {"measurement": "fraction unbound at 6 h", "setting": "[6]", "value": 0.0073},
      {"measurement": "Ka (oral absorption rate)", "setting": "[7]; calculated as 0.693/(tmax/5)", "value": 3.77},
      {"measurement": "Cmax", "setting": "[7]; male, dog, plasma, oral", "value": 1310, "unit": "nM"},
      {"measurement": "[I]h (estimated free concentration in liver)", "setting": "[8]", "value": 0.74, "unit": "nM"},
      {"measurement": "half-life", "setting": "[9]; po, 20 mg/kg, p.o., MT + CBD (20 + 20) mg/kg", "value": 2.67, "unit": "h"},
      {"measurement": "half-life", "setting": "[9]; po, 20 mg/kg, p.o., Vehicle + CBD 20 mg/kg", "value": 3.55, "unit": "h"},
      {"measurement": "AUC(0-t)", "setting": "[9]; [14]", "value": 1390, "unit": "ng·h/mL"},
      {"measurement": "AUC(0-t)", "setting": "[9]; [15]", "value": 1570, "unit": "ng·h/mL"},
      {"measurement": "AUC(0-inf)", "setting": "[9]; [14]", "value": 1410, "unit": "ng·h/mL"},
      {"measurement": "AUC(0-inf)", "setting": "[9]; [15]", "value": 1590, "unit": "ng·h/mL"},
      {"measurement": "Cmax", "setting": "[9]; [14]", "value": 519, "unit": "ng/mL"},
      {"measurement": "Cmax", "setting": "[9]; [15]", "value": 704, "unit": "ng/mL"},
      {"measurement": "MRT last", "setting": "[9]; [14]", "value": 2.71, "unit": "h"},
      {"measurement": "MRT last", "setting": "[9]; [15]", "value": 3.11, "unit": "h"},
      {"measurement": "Tmax", "setting": "[9]; [14]", "value": 1.21, "unit": "h"},
      {"measurement": "Tmax", "setting": "[9]; [15]", "value": 0.92, "unit": "h"},
      {"measurement": "half-life", "setting": "[9]; male, po, 20 mg/kg, p.o., MT + CBD (5 + 20) mg/kg", "value": 4.14, "unit": "h"},
      {"measurement": "Cmax", "setting": "[9]; male, oral, parameter of CBD for static DDI model", "value": 1620, "unit": "nM"},
      {"measurement": "AUC(0-t)", "setting": "[9]; [16]", "value": 1590, "unit": "ng·h/mL"},
      {"measurement": "AUC(0-inf)", "setting": "[9]; [16]", "value": 1610, "unit": "ng·h/mL"},
      {"measurement": "Cmax", "setting": "[9]; [16]", "value": 510, "unit": "ng/mL"},
      {"measurement": "MRT last", "setting": "[9]; [16]", "value": 3.85, "unit": "h"},
      {"measurement": "Tmax", "setting": "[9]; [16]", "value": 1.5, "unit": "h"},
      {"measurement": "Ka (oral absorption rate)", "setting": "[9]; calculated as 0.693/(tmax/5)", "value": 2.31},
      {"measurement": "AUC(0–t) of CBD in ABT-model rats relative to control group", "setting": "[10]", "value": "approximately 1.68 fold"},
      {"measurement": "inhibition at 500 µM", "setting": "PEPT1; 500 μM CBD, 100 μM MT, 4 °C, read-out: uptake inhibition rate of MT", "value": 2.7, "unit": "%"},
      {"measurement": "inhibition at 500 µM", "setting": "PEPT1; 500 μM CBD, 100 μM MT, 37 °C, read-out: uptake inhibition rate of MT", "value": 79.6, "unit": "%"},
      {"measurement": "inhibition at 500 µM", "setting": "PEPT1; pH 6.3, 500 μM CBD, 100 μM Gly, pH 6.3, 37 °C, read-out: inhibition rate on the uptake of Gly via PEPT1", "value": 46.7, "unit": "%"},
      {"measurement": "inhibition at 500 µM", "setting": "PEPT1; pH 6.3, 500 μM CBD, 100 μM UBEN, pH 6.3, 37 °C, read-out: inhibition rate on the uptake of UBEN via PEPT1", "value": 55.8, "unit": "%"},
      {"measurement": "fraction unbound at 6 h", "setting": "[11]", "value": 0.0006},
      {"measurement": "fraction unbound at 6 h", "setting": "[12]; read-out: Plasma Protein Binding (converted)", "value": 0.001},
      {"measurement": "fraction unbound at 6 h", "setting": "[12]; read-out: fu, p (free fraction in plasma)", "value": 0.0001},
      {"measurement": "[I]h (estimated free concentration in liver)", "setting": "[13]", "value": 1.37, "unit": "nM"}
    ]}
  ]
}
